Results published in patent US7482427B2, “Positive modulator of bone morphogenic protein-2” (BioSurface Engineering Technologies, Inc., priority 2002, dated 2009).

Tests used:
[1] = system: C3H10T½, MC3T3 cells or hFOB; assay: Cell migration across simulated wound margin, positive control (cell line not specified); assay type: cell-based; details: positive control reference, FGF-2 50 ng/mL, 6 hours (data not shown)
Method: Cell migration. For studies involving migration across a wound margin, the cells were grown in vitro and used when approximately 90% confluent. A simulated wound was made by scraping cells away from the cultureware surface. The cultures were rinsed to remove unbound cells, and then incubated in DMEM:F12 medium containing 2% newborn calf serum with or without peptide. FGF-2 (50 ng/mL) was used as a positive control reference material. The cells were allowed to migrate for 6 hours after which the cells were fixed in buffered formalin. Migration was monitored via phase contrast microscopy. Migrating cells were those that had migrated across the site of the simulated wound margin.
B2A2-K-NS was tested for its ability to induce cells of preosteoblast origin to migrate to a stimulated wound margin. Murine C3H10T½, MC3T3 cells or hFOB were grown to near confluency in vitro. A stimulated wound was made by scraping the cells away from the substrate. The cells were allowed to migrate for 6 hours after which migration was monitored via microscopy. Statistical significance was determined using ANOVA followed by post hoc testing using multiple comparison versus control group (Dunnett's Method). […] Table 3 summarizes the increase in migrating cells at the simulated wound margin induced by about 0.2 to 2.0 μg/mL B2A2-K-NS.

C2C12 cells = assay: Alkaline phosphatase (ALP) activity assay in C2C12 cells; assay type: cell-based, Mouse; details: for induction of ALP by growth factor in the presence of B2A2: B2A2 1000 ng/mL, FGF-2 50 ng/mL, VEGF 25 ng/mL, TGF-β1 50 pg/mL, 3 days
Method: Alkaline phosphatase (ALP) Activity Assay. C2C12 cells and C3H10T½ cells were cultured at 37° C. in a humidified atmosphere of 5% CO2 and 95% air, with DMEM/F12 medium supplemented with 10% serum, penicillin/streptomycin. […] At 4-5 days post induction, ALP activity was determined as described by Akiyama and colleagues (Akiyama et al. 1997, Exp Cell Res 235(2):362-9.) with modifications. Briefly, cells were washed once with phosphate-buffered saline (PBS) and lysed with 0.1% Triton×100 in 10 mM Tris HCl, pH 9.0. Protein concentration was determined using the BCA Protein Assay Kit (Pierce Biotechnology, Rockford, Ill.). Then ALP activity was measured by adding ALP buffer (1 M diethanolamine, 0.5 mM MgCl2, 1 mg/mL p-nitrophenylphosphate, pH 9.0), incubating in 37° C., and absorbance (405 nm) read at 15, 30 and 60 minutes using a microplate spectrophotometer (Molecular Devices, Sunnyvale, Calif.). The activity was expressed as O.D. per mg protein per hour.
B2A2 was tested to determine whether B2A2 enhanced the biological effects of CHO-produced rhBMP-2. […] Points represent means of quintuplicate determinations±SD.
B2A2 was tested in combination with other growth factors including FGF-2, VEGF, and tGF-β1 for induction of ALP in C2C12 cells. […] Mouse C2C12 cells were cultured as described for FIG. 1A, treated with a combination of various growth factors plus or minus B2A2, incubated for 3 days, and then assayed for ALP activity as described for FIG. 1A. […] Bars represent means of quintuplicate determinations±SD.
Mouse C2C12 cells were cultured as before and B2A2 (1000 ng/mL) was added to some wells. After a 45 minute incubation all wells were rinsed with fresh medium and the medium was replaced. […] After 5 days ALP activity was measured. […] Data is the means of triplicates±SD.
In FIG. 5A, a polystyrene surface of 96-well plates were first coated by silyl-heparin (open bars), followed by a 1 μg/mL solution of B2A2 (solid bars) in PBS for (1 hr at 37° C.) and rinsed in PBS and dried at room temperature. […] ALP activity was measured five days later. Data is the means of triplicates±SD.
In FIG. 5B, stainless steel wafers were first coated with silyl-heparin (open bars) followed by 100 μg/mL B2A2 in PBS as a second coating (solid bars) and rinsed in PBS and dried at room temperature. Wafers were coated separately in wells of a 24-well plate and transferred to a fresh untreated plate prior to cell seeding.
ALP activity was measured five days later. Data is the means of triplicates±SD.

[2] = system: BMPR and ActivinR isoforms; assay: Solid phase receptor binding assay, panel of receptor/Fc chimeras; details: insulin adsorbed to plates; Endostatin-Fc as unrelated chimeric protein
Method: Receptor binding assays. Binding to BMP receptors in a solid phase binding assay. B2A2 was absorded onto ELISA plates to saturation, soluble BMP receptor-immunoglobin Fc fusion proteins were added, and bound receptor was detected by HRP-conjugated anti-Fc antibody and colorimetric assay, values shown are background substracted. Specific binding of B2A2 to different receptor isoforms of the BMPR and Activin Receptor family were tested, employing the receptor-Fc chimeras shown. […] Bound receptor was displaced by the addition of rhBMP-2 at the levels indicated.
The compound of Example 2 was tested for specific binding to Bone Morphogenic Protein-2 receptors. Referring now to FIG. 12, results of solid phase receptor binding assays utilizing purified receptor/Fc chimeric molecules are illustrated. The chimeras are recombinant constructs of the soluble ectodomain of various receptor molecules (BMPR and ActivinR isoforms) fused to the carboxyl-terminal of the human IgG1 Fc region via a polypeptide liner. ELISA plates were coated with B2A2 or control compounds, soluble chimeric receptor/Fc antibody and quantified with a colorimeteric ELISA.

Substance: FGF-2: growth factor, positive control reference material for migration (50 ng/mL)
- migrating cells compared to controls [1]: significant increase in migrating cells
- induction of ALP by growth factor in the presence of B2A2 (C2C12 cells): failed to induce ALP

Substance: Insulin
- binding of negative controls [2]: did not bind

Substance: TGF-B: growth factor purchased from Sigma Aldrich, tested in combination with B2A2
- induction of ALP by growth factor in the presence of B2A2 (C2C12 cells): failed to induce ALP

Substance: VEGF
- induction of ALP by growth factor in the presence of B2A2 (C2C12 cells): failed to induce ALP

Substance: benzyl-tetra(dimethylsilylmethyl)oxycarbamoyl-heparin [silyl-heparin, reference compound]
- ALP activity on coated polystyrene surface (C2C12 cells; silyl-heparin coating alone, BMP-2 50 ng/mL in solution, 5 days): potentiates BMP-2 activity
